According to ChEMBL document CHEMBL1159033, “Inhibition of angiotensin-I-converting enzyme by tetrahydroxyxanthones isolated from Tripterospermum lanceolatum” (J Nat Prod, 1992):

How the values were obtained:
[1] = target: T1, Angiotensin-converting enzyme (Homo sapiens, UniProt P12821); assay: Inhibition of ACE at 100 uM
[2] = test system: Rattus norvegicus; assay: Antihypertensive activity in spontaneously hypertensive rat assessed as inhibition of angiotensin 1-induced vasopressive response at 0.04 mg/kg, iv after 30 mins; type: functional; conditions: 0.5 h
[3] = test system: Rattus norvegicus; assay: Antihypertensive activity in spontaneously hypertensive rat assessed as inhibition of angiotensin 1-induced vasopressive response at 0.04 mg/kg, iv after 20 mins; type: functional
[4] = test system: Rattus norvegicus; assay: Antihypertensive activity in spontaneously hypertensive rat assessed as inhibition of angiotensin 1-induced vasopressive response at 0.4 mg/kg, iv after 10 mins; type: functional
[5] = test system: Rattus norvegicus; assay: Antihypertensive activity in spontaneously hypertensive rat assessed as inhibition of angiotensin 1-induced vasopressive response at 0.4 mg/kg, iv after 30 mins; type: functional; conditions: 0.5 h
[6] = test system: Rattus norvegicus; assay: Antihypertensive activity in spontaneously hypertensive rat assessed as inhibition of angiotensin 1-induced vasopressive response at 0.4 mg/kg, iv after 20 mins; type: functional
[7] = test system: Rattus norvegicus; assay: Antihypertensive activity in spontaneously hypertensive rat assessed as inhibition of angiotensin 1-induced vasopressive response at 0.04 mg/kg, iv after 10 mins; type: functional
[8] = target: T1, Angiotensin-converting enzyme; assay: Inhibition of ACE at 400 uM
[9] = target: T1, Angiotensin-converting enzyme; assay: Inhibition of ACE at 200 uM
[10] = target: T1, Angiotensin-converting enzyme; assay: Inhibition of ACE
[11] = target: T1, Angiotensin-converting enzyme; assay: Inhibition of ACE by Lineweaver-Burke plot
[12] = test system: Rattus norvegicus; assay: Antihypertensive activity in spontaneously hypertensive rat assessed as inhibition of angiotensin 1-induced vasopressive response at 40 mg/kg, iv after 30 mins; type: functional; conditions: 0.5 h
[13] = test system: Rattus norvegicus; assay: Antihypertensive activity in spontaneously hypertensive rat assessed as inhibition of angiotensin 1-induced vasopressive response at 20 mg/kg, iv after 20 mins; type: functional
[14] = test system: Rattus norvegicus; assay: Antihypertensive activity in spontaneously hypertensive rat assessed as inhibition of angiotensin 1-induced vasopressive response at 80 mg/kg, iv after 30 mins; type: functional; conditions: 0.5 h
[15] = test system: Rattus norvegicus; assay: Antihypertensive activity in spontaneously hypertensive rat assessed as inhibition of angiotensin 1-induced vasopressive response at 80 mg/kg, iv after 10 mins; type: functional
[16] = test system: Rattus norvegicus; assay: Antihypertensive activity in spontaneously hypertensive rat assessed as inhibition of angiotensin 1-induced vasopressive response at 40 mg/kg, iv after 20 mins; type: functional
[17] = test system: Rattus norvegicus; assay: Antihypertensive activity in spontaneously hypertensive rat assessed as inhibition of angiotensin 1-induced vasopressive response at 40 mg/kg, iv after 10 mins; type: functional
[18] = test system: Rattus norvegicus; assay: Antihypertensive activity in spontaneously hypertensive rat assessed as inhibition of angiotensin 1-induced vasopressive response at 20 mg/kg, iv after 10 mins; type: functional
[19] = test system: Rattus norvegicus; assay: Antihypertensive activity in spontaneously hypertensive rat assessed as inhibition of angiotensin 1-induced vasopressive response at 80 mg/kg, iv after 20 mins; type: functional
[20] = test system: Rattus norvegicus; assay: Antihypertensive activity in spontaneously hypertensive rat assessed as inhibition of angiotensin 1-induced vasopressive response at 20 mg/kg, iv after 30 mins; type: functional; conditions: 0.5 h

T1 sequence (P12821 whole entry): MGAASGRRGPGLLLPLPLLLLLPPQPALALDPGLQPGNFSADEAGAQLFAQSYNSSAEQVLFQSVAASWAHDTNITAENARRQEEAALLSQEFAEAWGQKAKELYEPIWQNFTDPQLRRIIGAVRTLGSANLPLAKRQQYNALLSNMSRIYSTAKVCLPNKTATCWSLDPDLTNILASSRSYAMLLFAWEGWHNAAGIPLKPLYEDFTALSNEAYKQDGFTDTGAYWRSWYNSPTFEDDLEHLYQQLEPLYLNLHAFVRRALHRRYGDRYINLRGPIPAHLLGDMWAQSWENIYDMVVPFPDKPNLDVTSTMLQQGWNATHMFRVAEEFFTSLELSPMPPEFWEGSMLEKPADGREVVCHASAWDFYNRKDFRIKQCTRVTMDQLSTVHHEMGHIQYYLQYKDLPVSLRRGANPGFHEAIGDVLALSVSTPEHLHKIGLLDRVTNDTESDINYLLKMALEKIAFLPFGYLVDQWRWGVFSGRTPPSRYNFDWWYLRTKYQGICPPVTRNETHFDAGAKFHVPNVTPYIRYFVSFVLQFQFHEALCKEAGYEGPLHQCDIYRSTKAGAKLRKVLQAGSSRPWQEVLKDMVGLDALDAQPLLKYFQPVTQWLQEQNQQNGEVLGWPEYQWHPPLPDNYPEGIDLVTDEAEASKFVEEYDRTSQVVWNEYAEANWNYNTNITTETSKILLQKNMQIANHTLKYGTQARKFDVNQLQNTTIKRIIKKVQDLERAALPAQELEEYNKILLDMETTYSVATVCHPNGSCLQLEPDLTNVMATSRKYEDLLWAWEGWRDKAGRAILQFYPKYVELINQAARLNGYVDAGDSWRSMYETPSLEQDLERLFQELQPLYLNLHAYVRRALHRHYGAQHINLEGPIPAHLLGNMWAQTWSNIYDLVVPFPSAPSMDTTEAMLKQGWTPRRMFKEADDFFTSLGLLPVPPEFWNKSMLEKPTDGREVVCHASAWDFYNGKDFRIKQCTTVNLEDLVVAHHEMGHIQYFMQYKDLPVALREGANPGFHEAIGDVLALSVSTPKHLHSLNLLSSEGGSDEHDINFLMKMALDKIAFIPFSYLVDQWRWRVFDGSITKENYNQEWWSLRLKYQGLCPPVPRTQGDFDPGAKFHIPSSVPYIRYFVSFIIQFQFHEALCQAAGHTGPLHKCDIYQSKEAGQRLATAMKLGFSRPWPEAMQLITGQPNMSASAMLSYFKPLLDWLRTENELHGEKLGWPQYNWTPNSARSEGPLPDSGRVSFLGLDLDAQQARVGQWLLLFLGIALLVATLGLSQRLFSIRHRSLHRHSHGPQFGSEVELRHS

inhibition [1] [%]	inhibition [8] [%]	inhibition [9] [%]	IC50 [10] [µM]	Ki [11] [µM]	Structure (SMILES)	other results
7					CC(=O)Oc1ccc2c(=O)c3ccc(OC(C)=O)c(OC(C)=O)c3oc2c1OC(C)=O	
< 1					CC(=O)Oc1cc(OC(C)=O)c2c(=O)c3cc(OC(C)=O)c(OC(C)=O)cc3oc2c1	
11.7	26.8	17.2	> 769		O=c1c2cc(O)c(O)cc2oc2cc(O)c(O)cc12	
83.1	95	90		14.2	O=c1c2cc(O)c(O)cc2oc2c(O)c(O)ccc12	inhibition in vivo at 40 mg/kg [12]: 10%; inhibition in vivo at 20 mg/kg [13]: 5.9%; inhibition in vivo at 80 mg/kg [14]: 13%; inhibition in vivo at 80 mg/kg [15]: 52.7%; inhibition in vivo at 40 mg/kg [16]: 30.8%; inhibition in vivo at 40 mg/kg [17]: 47.8%; inhibition in vivo at 20 mg/kg [18]: 33.8%; inhibition in vivo at 80 mg/kg [19]: 32.5%; inhibition in vivo at 20 mg/kg [20]: 0%
34.3	55.5	46.2	239	126	O=c1c2ccc(O)c(O)c2oc2c(O)c(O)ccc12	

Further lines, the compound ahead of its results:

Structure (SMILES)	inhibition [1] [%]	inhibition [8] [%]	inhibition [9] [%]	IC50 [10] [µM]	Ki [11] [µM]	other results
CC(=O)Oc1cc2oc3cc(OC(C)=O)c(OC(C)=O)cc3c(=O)c2cc1OC(C)=O	< 1					
C[C@H](CS)C(=O)N1CCC[C@H]1C(=O)O [CAPTOPRIL]						inhibition in vivo at 0.04 mg/kg [2]: 0%; inhibition in vivo at 0.04 mg/kg [3]: 0%; inhibition in vivo at 0.4 mg/kg [4]: 78.5%; inhibition in vivo at 0.4 mg/kg [5]: 45.5%; inhibition in vivo at 0.4 mg/kg [6]: 66.6%; inhibition in vivo at 0.04 mg/kg [7]: 10%
CC(=O)Oc1cc(OC(C)=O)c2c(=O)c3ccc(OC(C)=O)c(OC(C)=O)c3oc2c1	< 1					
CC(=O)Oc1cc2oc3c(OC(C)=O)c(OC(C)=O)ccc3c(=O)c2cc1OC(C)=O	9.82					
O=c1c2cc(O)c(O)cc2oc2cc(O)cc(O)c12	15.5	40.3	23.5	531	250	
O=c1c2ccc(O)c(O)c2oc2cc(O)cc(O)c12	56.4	75.3	67.7	69.2	34.2	
